{
  "source": "patent US12617752B2",
  "about": "“Rapidly metabolized lipid compound” (Beijing Jitai Life Sciences Ltd, priority 2023, dated 2026)",
  "key": {"[1]": {"assay": "Encapsulation efficiency of lipid nanoparticles (Quant-it RiboGreen RNA Assay)", "assay_type": "physicochemical", "details": "lipid nanoparticles with luciferase mRNA", "method_in_brief": "(§1)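 LNPs of ionizable lipid/cholesterol/phospholipid/PEG-lipid (50/38.5/10/1.5 mol%, N/P 6) were formed by microfluidic mixing with mRNA in pH 4.5 acetate, then buffer-exchanged by ultrafiltration. Size and PDI were measured by DLS. Encapsulation came from RiboGreen fluorescence (485/528 nm) in TE pH 7.5, with and without 0.5% Triton at 37 °C for 30 min.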"}, "[2]": {"test_system": "C57BL/6 mice", "assay": "In vivo delivery of luciferase mRNA lipid nanoparticles in mice (bioluminescence imaging)", "details": "intravenous, single dose 0.5 mg/kg luciferase mRNA", "method_in_brief": "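Female C57BL/6 mice, 6-8 weeks old, received luciferase mRNA lipid nanoparticles as a single intravenous dose of 0.5 mg/kg mRNA. At 6 h, D-luciferin given intraperitoneally; 10 min later, mice were imaged under isoflurane anaesthesia. Values are group mean fluorescence intensity and total photon count.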"}, "[3]": {"assay": "Particle size and PDI of lipid nanoparticles by dynamic light scattering", "assay_type": "physicochemical", "details": "lipid nanoparticles with luciferase mRNA; ionizable lipid/cholesterol/DSPC/DMG-PEG2000 50/38.5/10/1.5 mol%", "method_in_brief": "as §1"}},
  "data": [
    {"smiles": "CCCCCCCCCC(=O)OCCCC(C)(C)CCCN(CCCO)CCCCCCC(=O)OCC(CCCCCCCC)CCCCCCCC", "note": "[82b]", "values": [
      {"measurement": "Encapsulation efficiency (%)", "setting": "[1]", "result": 90.71, "unit": "%"},
      {"measurement": "Total photon count in vivo at 6 hours after administration (Total Flux)", "setting": "[2]", "result": "5.03E+10"},
      {"measurement": "Particle size (nm)", "setting": "[3]", "result": 99.57, "unit": "nm"},
      {"measurement": "Particle-size distribution (PDI)", "setting": "[3]", "result": 0.16}
    ]},
    {"smiles": "CCCCCCCCCC(=O)OCCCC(C)(C)CCCN(CCCO)CCCCCCC(=O)OCCCC(CCCCCC)CCCCCC", "note": "[83b]", "values": [
      {"measurement": "Encapsulation efficiency (%)", "setting": "[1]", "result": 95.70, "unit": "%"},
      {"measurement": "Total photon count in vivo at 6 hours after administration (Total Flux)", "setting": "[2]", "result": "1.62E+10"},
      {"measurement": "Particle size (nm)", "setting": "[3]", "result": 100.67, "unit": "nm"},
      {"measurement": "Particle-size distribution (PDI)", "setting": "[3]", "result": 0.10}
    ]},
    {"smiles": "CCCCCCCCCC(=O)OCCCC(C)(C)CCCN(CCCCO)CCCCCCC(=O)OCC(CCCCCCCC)CCCCCCCC", "note": "[84b]", "values": [
      {"measurement": "Encapsulation efficiency (%)", "setting": "[1]", "result": 89.17, "unit": "%"},
      {"measurement": "Total photon count in vivo at 6 hours after administration (Total Flux)", "setting": "[2]", "result": "6.68E+10"},
      {"measurement": "Particle size (nm)", "setting": "[3]", "result": 123.77, "unit": "nm"},
      {"measurement": "Particle-size distribution (PDI)", "setting": "[3]", "result": 0.11}
    ]},
    {"smiles": "CCCCCCCCCCC(=O)OCC(C)(C)CCCCCN(CCCO)CCCCCCC(=O)OCC(CCCCCCCCC)CCCCCCCCC", "note": "[85b]", "values": [
      {"measurement": "Encapsulation efficiency (%)", "setting": "[1]", "result": 95.44, "unit": "%"},
      {"measurement": "Total photon count in vivo at 6 hours after administration (Total Flux)", "setting": "[2]", "result": "9.61E+10"},
      {"measurement": "Particle size (nm)", "setting": "[3]", "result": 92.14, "unit": "nm"},
      {"measurement": "Particle-size distribution (PDI)", "setting": "[3]", "result": 0.17}
    ]},
    {"smiles": "CCCCCCCCCCCC(=O)OCC(C)(C)CCCCCN(CCCO)CCCCCCC(=O)OCC(CCCCCCCCCC)CCCCCCCCCC", "note": "[86b]", "values": [
      {"measurement": "Encapsulation efficiency (%)", "setting": "[1]", "result": 94.74, "unit": "%"},
      {"measurement": "Total photon count in vivo at 6 hours after administration (Total Flux)", "setting": "[2]", "result": "1.01E+11"},
      {"measurement": "Particle size (nm)", "setting": "[3]", "result": 92.26, "unit": "nm"},
      {"measurement": "Particle-size distribution (PDI)", "setting": "[3]", "result": 0.13}
    ]},
    {"smiles": "CCCCCCCCCCC(=O)OCC(C)(C)CCCCCN(CCO)CCCCCCCCC(=O)OCC(CCCCCCC)CCCCCCC", "note": "[87b]", "values": [
      {"measurement": "Encapsulation efficiency (%)", "setting": "[1]", "result": 94.16, "unit": "%"},
      {"measurement": "Total photon count in vivo at 6 hours after administration (Total Flux)", "setting": "[2]", "result": "1.35E+11"},
      {"measurement": "Particle size (nm)", "setting": "[3]", "result": 92.25, "unit": "nm"},
      {"measurement": "Particle-size distribution (PDI)", "setting": "[3]", "result": 0.22}
    ]},
    {"smiles": "CCCCCCCCCCCC(=O)OCC(C)(C)CCCCCN(CCCO)CCCCCCCCC(=O)OCC(CCCCCCCC)CCCCCCCC", "note": "[88b]", "values": [
      {"measurement": "Encapsulation efficiency (%)", "setting": "[1]", "result": 94.68, "unit": "%"},
      {"measurement": "Total photon count in vivo at 6 hours after administration (Total Flux)", "setting": "[2]", "result": "4.51E+10"},
      {"measurement": "Particle size (nm)", "setting": "[3]", "result": 98.16, "unit": "nm"},
      {"measurement": "Particle-size distribution (PDI)", "setting": "[3]", "result": 0.12}
    ]},
    {"smiles": "CCCCCCCCCCC(=O)OCC(C)(C)CCCCCN(CCCCO)CCCCCCCCC(=O)OCC(CCCCCCC)CCCCCCC", "note": "[89b]", "values": [
      {"measurement": "Encapsulation efficiency (%)", "setting": "[1]", "result": 84.88, "unit": "%"},
      {"measurement": "Total photon count in vivo at 6 hours after administration (Total Flux)", "setting": "[2]", "result": "5.51E+10"},
      {"measurement": "Particle size (nm)", "setting": "[3]", "result": 122.20, "unit": "nm"},
      {"measurement": "Particle-size distribution (PDI)", "setting": "[3]", "result": 0.08}
    ]},
    {"smiles": "CCCCCCCCCCCC(=O)OCC(C)(C)CCCCCN(CCCCO)CCCCCCCCC(=O)OCC(CCCCCCCC)CCCCCCCC", "note": "[90b]", "values": [
      {"measurement": "Encapsulation efficiency (%)", "setting": "[1]", "result": 91.21, "unit": "%"},
      {"measurement": "Total photon count in vivo at 6 hours after administration (Total Flux)", "setting": "[2]", "result": "4.72E+10"},
      {"measurement": "Particle size (nm)", "setting": "[3]", "result": 109.57, "unit": "nm"},
      {"measurement": "Particle-size distribution (PDI)", "setting": "[3]", "result": 0.08}
    ]},
    {"smiles": "CCCCCCCCCCCC(=O)OCC(C)(C)CCCCCN(CCCCO)CCCCCCC(=O)OCC(CCCCCCCCCC)CCCCCCCCCC", "note": "[91b]", "values": [
      {"measurement": "Encapsulation efficiency (%)", "setting": "[1]", "result": 91.95, "unit": "%"},
      {"measurement": "Total photon count in vivo at 6 hours after administration (Total Flux)", "setting": "[2]", "result": "8.66E+10"},
      {"measurement": "Particle size (nm)", "setting": "[3]", "result": 96.43, "unit": "nm"},
      {"measurement": "Particle-size distribution (PDI)", "setting": "[3]", "result": 0.12}
    ]},
    {"smiles": "CCCCCCCCCC(=O)OCCCC(C)(C)CCCN(CCCO)CCCCCCC(=O)OCCC(CCCCCCC)CCCCCCC", "note": "[92b]", "values": [
      {"measurement": "Encapsulation efficiency (%)", "setting": "[1]", "result": 92.47, "unit": "%"},
      {"measurement": "Total photon count in vivo at 6 hours after administration (Total Flux)", "setting": "[2]", "result": "3.74E+10"},
      {"measurement": "Particle size (nm)", "setting": "[3]", "result": 99.90, "unit": "nm"},
      {"measurement": "Particle-size distribution (PDI)", "setting": "[3]", "result": 0.15}
    ]},
    {"smiles": "CCCCCCCCCC(=O)OCCCC(C)(C)CCCN(CCCCO)CCCCCCC(=O)OCCC(CCCCCCC)CCCCCCC", "note": "[93b]", "values": [
      {"measurement": "Encapsulation efficiency (%)", "setting": "[1]", "result": 90.17, "unit": "%"},
      {"measurement": "Total photon count in vivo at 6 hours after administration (Total Flux)", "setting": "[2]", "result": "2.45E+10"},
      {"measurement": "Particle size (nm)", "setting": "[3]", "result": 141.73, "unit": "nm"},
      {"measurement": "Particle-size distribution (PDI)", "setting": "[3]", "result": 0.10}
    ]}
  ]
}
